Consider one molecule from PMC5218480 (PLoS ONE, 2017).

In this experiment the test system is MV-4-11 cells. Kind of experiment: Gene expression microarray analysis (Affymetrix PrimeView) and GSEA. In kind it is cell-based, human. Further details: RFU PODN (11730768_x_at) / Fold change /veh PODN (11730768_x_at) / RFU LINC00158 (11744669_a_at) / Fold change /veh LINC00158 (11744669_a_at) / RFU DUSP10 (11751237_a_at) / Fold change /veh DUSP10 (11751237_a_at) / RFU ID3 (11757404_x_at) / Fold change /veh ID3 (11757404_x_at) / RFU PLEKHG5 (11737974_s_at) / Fold change /veh PLEKHG5 (11737974_s_at) / RFU LRRC4B (11730491_at) / Fold change /veh LRRC4B (11730491_at) / RFU GIMAP4 (11747438_a_at) / Fold change /veh GIMAP4 (11747438_a_at) / RFU KRT8 (11758183_x_at) / Fold change /veh KRT8 (11758183_x_at) / RFU CNN1 (11734310_a_at) / Fold change /veh CNN1 (11734310_a_at) / RFU VPS37D (11726825_at) / Fold change /veh VPS37D (11726825_at) / RFU C10orf10 (11716522_x_at) / Fold change /veh C10orf10 (11716522_x_at) / RFU KIR2DL2 /// KIR2DL4 /// KIR2DL5A /// KIR2DL5B /// KIR2DS1 /// KIR2DS2 /// KIR2DS3 /// KIR2DS4 /// KIR3DL3 /// KIR3DL3 /// KIR3DS1 (11738374_at) / Fold change /veh KIR2DL2 /// KIR2DL4 /// KIR2DL5A /// KIR2DL5B /// KIR2DS1 /// KIR2DS2 /// KIR2DS3 /// KIR2DS4 /// KIR3DL3 /// KIR3DL3 /// KIR3DS1 (11738374_at) / RFU C1QL1 (11718748_at) / Fold change /veh C1QL1 (11718748_at) / RFU TMPRSS4 (11747572_a_at) / Fold change /veh TMPRSS4 (11747572_a_at) / RFU HAMP (11756126_x_at) / Fold change /veh HAMP (11756126_x_at) / RFU RNFT2 (11725882_a_at) / Fold change /veh RNFT2 (11725882_a_at) / RFU NR4A2 (11747474_a_at) / Fold change /veh NR4A2 (11747474_a_at) / RFU ABCC12 (11746883_a_at) / Fold change /veh ABCC12 (11746883_a_at) / RFU TMEM136 (11760407_x_at) / Fold change /veh TMEM136 (11760407_x_at) / RFU CLDN22 /// WWC2 (11732394_at) / Fold change /veh CLDN22 /// WWC2 (11732394_at) / RFU HLA-DPB1 (11760878_x_at) / Fold change /veh HLA-DPB1 (11760878_x_at) / RFU SPINT1 (11716480_a_at) / Fold change /veh SPINT1 (11716480_a_at) / RFU GAP43 (11754022_s_at) / Fold change /veh GAP43 (11754022_s_at) / RFU A4GNT (11735810_at) / Fold change /veh A4GNT (11735810_at) / RFU PRB3 (11715151_x_at) / Fold change /veh PRB3 (11715151_x_at) / RFU TUBB4B (11761932_at) / Fold change /veh TUBB4B (11761932_at) / RFU CAPN14 (11732068_a_at) / Fold change /veh CAPN14 (11732068_a_at) / RFU TMCC2 (11721928_a_at) / Fold change /veh TMCC2 (11721928_a_at) / RFU IRGQ (11745062_a_at) / Fold change /veh IRGQ (11745062_a_at) / RFU FAM174B (11720279_a_at) / Fold change /veh FAM174B (11720279_a_at) / RFU TMPRSS4 (11748680_a_at) / Fold change /veh TMPRSS4 (11748680_a_at) / RFU FAM212B (11763350_a_at) / Fold change /veh FAM212B (11763350_a_at) / RFU PLEKHG5 (11743358_a_at) / Fold change /veh PLEKHG5 (11743358_a_at) / RFU ZSCAN30 (11745921_a_at) / Fold change /veh ZSCAN30 (11745921_a_at) / RFU CMKLR1 (11741424_a_at) / Fold change /veh CMKLR1 (11741424_a_at) / RFU LOC101060620 /// MAPK8IP1 (11723275_at) / Fold change /veh LOC101060620 /// MAPK8IP1 (11723275_at) / RFU SPTSSB (11747773_x_at) / Fold change /veh SPTSSB (11747773_x_at) / RFU PRSS12 (11739890_at) / Fold change /veh PRSS12 (11739890_at) / RFU BIN1 (11741810_x_at) / Fold change /veh BIN1 (11741810_x_at) / RFU WNT11 (11732464_a_at) / Fold change /veh WNT11 (11732464_a_at) / RFU C10orf10 (11716521_a_at) / Fold change /veh C10orf10 (11716521_a_at) / RFU C5orf56 (11738089_at) / Fold change /veh C5orf56 (11738089_at) / RFU CYB561 (11721691_x_at) / Fold change /veh CYB561 (11721691_x_at) / RFU ANKRD19P (11752326_a_at) / Fold change /veh ANKRD19P (11752326_a_at) / RFU OR2T12 /// OR2T33 /// OR2T8 (11738714_s_at) / Fold change /veh OR2T12 /// OR2T33 /// OR2T8 (11738714_s_at) / RFU VCAN (11748164_a_at) / Fold change /veh VCAN (11748164_a_at) / RFU JSRP1 (11732532_at) / Fold change /veh JSRP1 (11732532_at) / RFU KRTAP10-11 (11738290_x_at) / Fold change /veh KRTAP10-11 (11738290_x_at) / RFU MYO3A (11730013_a_at) / Fold change /veh MYO3A (11730013_a_at) / RFU EBF3 (11725865_a_at) / Fold change /veh EBF3 (11725865_a_at) / RFU CAMK2N1 (11719241_x_at) / Fold change /veh CAMK2N1 (11719241_x_at) / RFU C5orf56 (11738088_a_at) / Fold change /veh C5orf56 (11738088_a_at) / RFU OLFML3 (11715873_a_at) / Fold change /veh OLFML3 (11715873_a_at) / RFU LOC100653217 /// NTM (11731650_a_at) / Fold change /veh LOC100653217 /// NTM (11731650_a_at) / RFU MAPK11 (11762145_a_at) / Fold change /veh MAPK11 (11762145_a_at) / RFU FIZ1 (11724087_x_at) / Fold change /veh FIZ1 (11724087_x_at) / RFU OASL (11726364_x_at) / Fold change /veh OASL (11726364_x_at) / RFU SOX15 (11748057_x_at) / Fold change /veh SOX15 (11748057_x_at) / RFU CD79A (11719716_a_at) / Fold change /veh CD79A (11719716_a_at) / RFU HIST1H1D (11736915_at) / Fold change /veh HIST1H1D (11736915_at) / RFU CASKIN2 (11723855_a_at) / Fold change /veh CASKIN2 (11723855_a_at) / RFU LOC730098 (11760151_x_at) / Fold change /veh LOC730098 (11760151_x_at) / RFU OR4N2 (11742367_at) / Fold change /veh OR4N2 (11742367_at) / RFU PRRT2 (11749266_a_at) / Fold change /veh PRRT2 (11749266_a_at) / RFU SNX32 (11753110_a_at) / Fold change /veh SNX32 (11753110_a_at) / RFU CDHR5 (11726645_a_at) / Fold change /veh CDHR5 (11726645_a_at) / RFU RCAN1 (11760418_a_at) / Fold change /veh RCAN1 (11760418_a_at) / RFU FAM167A (11723789_a_at) / Fold change /veh FAM167A (11723789_a_at) / RFU FAM26E (11764081_at) / Fold change /veh FAM26E (11764081_at) / RFU ISYNA1 (11749810_s_at) / Fold change /veh ISYNA1 (11749810_s_at) / RFU ACY1 (11761880_at) / Fold change /veh ACY1 (11761880_at) / RFU 11764098_at / Fold change /veh 11764098_at / RFU SAMD14 (11745864_x_at) / Fold change /veh SAMD14 (11745864_x_at) / RFU NPB (11741838_a_at) / Fold change /veh NPB (11741838_a_at) / RFU TMPRSS6 (11731388_a_at) / Fold change /veh TMPRSS6 (11731388_a_at) / RFU KRTAP10-2 (11738614_at) / Fold change /veh KRTAP10-2 (11738614_at) / RFU ARHGAP8 /// PRR5-ARHGAP8 (11727945_x_at) / Fold change /veh ARHGAP8 /// PRR5-ARHGAP8 (11727945_x_at) / RFU KRTAP5-7 /// NADSYN1 (11734609_at) / Fold change /veh KRTAP5-7 /// NADSYN1 (11734609_at) / RFU RASL12 (11751679_a_at) / Fold change /veh RASL12 (11751679_a_at) / RFU CDKN2B (11736163_a_at) / Fold change /veh CDKN2B (11736163_a_at) / RFU PRF1 (11729649_at) / Fold change /veh PRF1 (11729649_at) / RFU, ZNF638 /// ZNF638-IT1 / Fold change vs veh, ZNF638 /// ZNF638-IT1 / RFU, PANK3 / Fold change vs veh, PANK3 / RFU, SH3YL1 / Fold change vs veh, SH3YL1 / RFU, ZEB2 / Fold change vs veh, ZEB2 / RFU, NRIP1 / Fold change vs veh, NRIP1 / RFU, PTTG1IP / Fold change vs veh, PTTG1IP / RFU, CAPN2 / Fold change vs veh, CAPN2 / RFU, MED14 / Fold change vs veh, MED14 / RFU, SNORA58 / Fold change vs veh, SNORA58 / RFU, C1orf63 / Fold change vs veh, C1orf63 / RFU, LRRFIP1 / Fold change vs veh, LRRFIP1 / RFU, NDUFAF7 / Fold change vs veh, NDUFAF7 / RFU, SLC12A2 / Fold change vs veh, SLC12A2 / RFU, IBTK / Fold change vs veh, IBTK / RFU, ESF1 / Fold change vs veh, ESF1 / Fold change vs veh, TMEM50B / RFU, TAOK1 / Fold change vs veh, TAOK1 / RFU, ACBD3 / Fold change vs veh, ACBD3 / RFU, TMA16 / Fold change vs veh, TMA16 / RFU, RWDD3 / Fold change vs veh, RWDD3 / RFU, BCAT1 / Fold change vs veh, BCAT1 / RFU, EDEM3 / Fold change vs veh, EDEM3 / RFU, TMEM33 / Fold change vs veh, TMEM33 / RFU, WDR75 / Fold change vs veh, WDR75 / RFU, AHCTF1 / Fold change vs veh, AHCTF1 / RFU, TFRC / Fold change vs veh, TFRC / RFU, ZDHHC17 / Fold change vs veh, ZDHHC17 / RFU, NOM1 / Fold change vs veh, NOM1 / RFU, ARL8B / Fold change vs veh, ARL8B / RFU, ZBTB11 / Fold change vs veh, ZBTB11 / RFU, TAMM41 / Fold change vs veh, TAMM41 / RFU, KIAA1704 /// LOC100996395 / Fold change vs veh, KIAA1704 /// LOC100996395 / RFU, ING1 / Fold change vs veh, ING1 / RFU, TRMT61B / Fold change vs veh, TRMT61B / RFU, FUBP3 / Fold change vs veh, FUBP3 / RFU, TP53 / Fold change vs veh, TP53 / RFU, TNKS2 / Fold change vs veh, TNKS2 / RFU, ZFP14 / Fold change vs veh, ZFP14 / RFU, ACTR2 / Fold change vs veh, ACTR2 / RFU, PPP3R1 / Fold change vs veh, PPP3R1 / RFU, PIK3R1 / Fold change vs veh, PIK3R1 / RFU, HNRNPA1 / Fold change vs veh, HNRNPA1 / RFU, RNF170 / Fold change vs veh, RNF170 / RFU, ZNF28 / Fold change vs veh, ZNF28 / RFU, RNGTT / Fold change vs veh, RNGTT / RFU, OGT / Fold change vs veh, OGT / RFU, BRD1 / Fold change vs veh, BRD1 / RFU, MARS / Fold change vs veh, MARS / RFU, ZNF655 / Fold change vs veh, ZNF655 / RFU, FAHD1 / Fold change vs veh, FAHD1 / RFU, BDP1 / Fold change vs veh, BDP1 / RFU, LRRCC1 / Fold change vs veh, LRRCC1 / RFU, ARID1A / Fold change vs veh, ARID1A / RFU, ZNF146 / Fold change vs veh, ZNF146 / RFU, ZNF330 / Fold change vs veh, ZNF330 / RFU, GPN3 / Fold change vs veh, GPN3 / RFU, C9orf123 / Fold change vs veh, C9orf123 / RFU, N4BP2L2 / Fold change vs veh, N4BP2L2 / RFU, ARFIP1 / Fold change vs veh, ARFIP1 / RFU, FAM179B / Fold change vs veh, FAM179B / RFU, BCL10 / Fold change vs veh, BCL10 / RFU, UHRF1BP1L / Fold change vs veh, UHRF1BP1L / RFU, BET1 / Fold change vs veh, BET1 / RFU, CNOT2 / Fold change vs veh, CNOT2 / RFU, ZNF268 / Fold change vs veh, ZNF268 / Fold change vs veh, ZNF507 / RFU, DGCR2 / Fold change vs veh, DGCR2 / RFU, WDSUB1 / Fold change vs veh, WDSUB1 / Fold change vs veh, HSP90B1 /// MIR3652 / RFU, ADSS / Fold change vs veh, ADSS / RFU, GK / Fold change vs veh, GK / RFU, ZNF148 / Fold change vs veh, ZNF148 / RFU, TAF9 / Fold change vs veh, TAF9 / RFU, SLC1A5 / Fold change vs veh, SLC1A5 / RFU, SLMO2 / Fold change vs veh, SLMO2 / RFU, ABCC4 / Fold change vs veh, ABCC4 / RFU, LOC101060439 /// RAP1B / Fold change vs veh, LOC101060439 /// RAP1B / RFU, RFX7 / Fold change vs veh, RFX7 / RFU, GTPBP10 / Fold change vs veh, GTPBP10 / RFU, CNEP1R1 / Fold change vs veh, CNEP1R1 / RFU, BIVM-ERCC5 /// ERCC5 / Fold change vs veh, BIVM-ERCC5 /// ERCC5 / RFU, ILF3 / Fold change vs veh, ILF3 / RFU 11762660_at / Fold change /veh 11762660_at / RFU VCAN (11757783_s_at) / Fold change /veh VCAN (11757783_s_at) / RFU DDX43 (11728927_at) / Fold change /veh DDX43 (11728927_at) / RFU KRT8 (11758188_x_at) / Fold change /veh KRT8 (11758188_x_at) / RFU NKD1 (11759106_at) / Fold change /veh NKD1 (11759106_at) / RFU SRD5A1 (11742802_a_at) / Fold change /veh SRD5A1 (11742802_a_at) / RFU TPSAB1 /// TPSB2 (11721975_s_at) / Fold change /veh TPSAB1 /// TPSB2 (11721975_s_at) / RFU GSTM3 (11746129_a_at) / Fold change /veh GSTM3 (11746129_a_at) / RFU IL23R (11737362_x_at) / Fold change /veh IL23R (11737362_x_at) / RFU TMEM51 (11727254_a_at) / Fold change /veh TMEM51 (11727254_a_at) / RFU PIWIL2 (11732686_x_at) / Fold change /veh PIWIL2 (11732686_x_at) / RFU ORM1 (11744905_x_at) / Fold change /veh ORM1 (11744905_x_at) / RFU CCDC152 (11743942_at) / Fold change /veh CCDC152 (11743942_at) / RFU ECM1 (11717891_a_at) / Fold change /veh ECM1 (11717891_a_at) / RFU IL23R (11748794_a_at) / Fold change /veh IL23R (11748794_a_at) / RFU TNFAIP8L3 (11732012_x_at) / Fold change /veh TNFAIP8L3 (11732012_x_at) / RFU MBOAT4 (11741988_at) / Fold change /veh MBOAT4 (11741988_at) / RFU 11764193_at / Fold change /veh 11764193_at / RFU TMEM53 (11763286_at) / Fold change /veh TMEM53 (11763286_at) / RFU MAGEB2 (11727129_at) / Fold change /veh MAGEB2 (11727129_at) / RFU TMEM200A (11744735_a_at) / Fold change /veh TMEM200A (11744735_a_at) / RFU CCDC152 (11751479_a_at) / Fold change /veh CCDC152 (11751479_a_at) / RFU FAM211A (11726209_a_at) / Fold change /veh FAM211A (11726209_a_at) / RFU RGS16 (11746705_a_at) / Fold change /veh RGS16 (11746705_a_at) / RFU VCAN (11755009_s_at) / Fold change /veh VCAN (11755009_s_at) / RFU RHOB (11743442_s_at) / Fold change /veh RHOB (11743442_s_at) / RFU RGS16 (11720943_a_at) / Fold change /veh RGS16 (11720943_a_at) / RFU RGS16 (11720944_at) / Fold change /veh RGS16 (11720944_at) / RFU, VPS4B / Fold change vs veh, VPS4B / RFU, CREB1 / Fold change vs veh, CREB1 / RFU, DNAJC13 / Fold change vs veh, DNAJC13 / RFU, GNAQ / Fold change vs veh, GNAQ / RFU, CDK5R1 / Fold change vs veh, CDK5R1 / RFU, ZRANB3 / Fold change vs veh, ZRANB3 / RFU, CUL4A / Fold change vs veh, CUL4A / RFU, CCNY / Fold change vs veh, CCNY / RFU, UFL1 / Fold change vs veh, UFL1 / RFU, COG3 / Fold change vs veh, COG3 / RFU, DIAPH2 / Fold change vs veh, DIAPH2 / RFU, SKA2 / Fold change vs veh, SKA2 / RFU, AFF3 / Fold change vs veh, AFF3 / RFU, LMF1 / Fold change vs veh, LMF1 / RFU, IPO11 / Fold change vs veh, IPO11 / RFU, DFFB / Fold change vs veh, DFFB / RFU, FOXP1 / Fold change vs veh, FOXP1 / RFU, CARD8 / Fold change vs veh, CARD8 / RFU, STRN3 / Fold change vs veh, STRN3 / RFU, ADK / Fold change vs veh, ADK / RFU, RASSF2 / Fold change vs veh, RASSF2 / RFU, WIPF1 / Fold change vs veh, WIPF1 / RFU, LARP1B / Fold change vs veh, LARP1B / RFU, RASA1 / Fold change vs veh, RASA1 / RFU, RB1 / Fold change vs veh, RB1 / RFU, PPFIA1 / Fold change vs veh, PPFIA1 / RFU, MAT2A / Fold change vs veh, MAT2A / RFU, CCT5 / Fold change vs veh, CCT5 / RFU, WDR92 / Fold change vs veh, WDR92 / RFU, CUX1 / Fold change vs veh, CUX1 / RFU, TTC7A / Fold change vs veh, TTC7A / RFU, TMEM135 / Fold change vs veh, TMEM135 / RFU, DEPTOR / Fold change vs veh, DEPTOR / RFU, CPM / Fold change vs veh, CPM / RFU, DNAJB6 / Fold change vs veh, DNAJB6 / RFU, CACNA2D3 / Fold change vs veh, CACNA2D3 / RFU, DTX4 / Fold change vs veh, DTX4 / RFU, TFCP2 / Fold change vs veh, TFCP2 / RFU, GMCL1 /// GMCL1P1 / Fold change vs veh, GMCL1 /// GMCL1P1 / RFU, AEBP2 / Fold change vs veh, AEBP2 / RFU, SNHG1 /// SNORD22 /// SNORD25 /// SNORD26 /// SNORD27 /// SNORD28 /// SNORD29 /// SNORD31 / Fold change vs veh, SNHG1 /// SNORD22 /// SNORD25 /// SNORD26 /// SNORD27 /// SNORD28 /// SNORD29 /// SNORD31 / Fold change (Aza/veh), C12orf56 (ProbeSet 11735607_a_at) / Fold change (ACY-1035/veh), C12orf56 (ProbeSet 11735607_a_at) / Fold change (Aza/veh), FGFR1OP (ProbeSet 11751329_s_at) / Fold change (ACY-1035/veh), FGFR1OP (ProbeSet 11751329_s_at) / Fold change (Aza/veh), VPS36 (ProbeSet 11739960_a_at) / Fold change (ACY-1035/veh), VPS36 (ProbeSet 11739960_a_at) / RFU SYPL1 (11715823_x_at) / Fold change /veh SYPL1 (11715823_x_at) / RFU IGFBP7 (11715501_s_at) / Fold change /veh IGFBP7 (11715501_s_at) / RFU REEP3 (11722064_at) / Fold change /veh REEP3 (11722064_at) / RFU IGLL1 (11728026_x_at) / Fold change /veh IGLL1 (11728026_x_at): dose or concentration left out as unconfirmed. To be noted: MV-4-11 cells, 48 hours.

As to `Nc1ccc(-c2cccs2)cc1NC(=O)c1ccc2c(c1)cc(C1CC1)n2CCN1CCOCC1` [ACY-1035], the “RFU CD79A (11719716_a_at)” value is given as 10.45 RFU.
